Laboratory results from patent US20050043262A1, “Novel specific inhibitor of the cyclin kinase inhibitor p21Waf1/Cip1 and methods of using the inhibitor” (priority 2000, published 2005).

What was measured:
laminin = test: Laminin production and secretion (immunoblot of lysate and conditioned media); type: cell-based, rat; conditions: VSM cells, 400 nM, TGF-β 0.1 to 10 ng/ml for 4 hours
Protocol: Western blots: Cells were grown to confluence in 6 cm culture dishes and serum deprived. After transfection and/or treatment with appropriate agonist, conditioned medium was removed and saved and the cells were washed with phosphate-buffered saline and lysed in lysis buffer. Both supernatant and cell lysate were normalized to the lysate protein concentrations and Western blotted as described (Weiss, R. H.; et al. Am. J. Physiol. 274: C1521-C1529; 1998).
The p21 influences on matrix protein secretion in VSM cells were determined. Levels of the matrix proteins laminin and fibronectin were examined in both TGF-β stimulated lysate and conditioned media of cells in which p21 expression had been attenuated. The cells were transfected with either antisense p21 (SEQ. ID NO.:1) (400 nM), or random sequence control (SEQ. ID NO.:3) (400 nM) oligodeoxynucleotide, and then stimulated with TGF-β at for 0.1 to 10 ng/ml for 4 hours. Conditioned media and cell lysate were collected, and both medium and lysate volumes were normalized for the protein content in total cell lysate to exclude any skewing of the data due to cell proliferation. The proteins were electrophoresed and immunoblotted with either fibronectin (after immunoprecipitation to eliminate extraneous bands which appeared in the absence of this procedure) or laminin antibody.

Rb = Rb hyperphosphorylation by Western blot in A431 cells; type: cell-based, human; conditions: 400 nM, 10% serum 6 and 24 hours
Protocol: Upon activation by cyclin/cdk complexes, the Rb protein in turn becomes phosphorylated, causing it to release the transcription factors known as E2F, leading to early oncogene expression and ultimately to cell growth. An effect of p21^Waf1/Cip1 on cdk/Rb interaction would be evident by a change in phosphorylation state of the Rb protein: this property can be assessed by examining small changes in gel mobility of this protein. A431 cells were transfected with 400 nM antisense p21^Waf1/Cip1 oligodeoxynucleotide (SEQ. ID NO.:1) or with lipofectin only (no DNA). After overnight incubation in serum-free medium, the cells were stimulated with complete media for 6 or 24 hours, lysed, and the lysates were Western blotted with Rb antibody.

T47D cells = test: Nuclear morphology (Hoechst 33258) in T47D cells; type: cell-based, human; conditions: serum stimulated 24 hours after lipofection
Protocol: Evaluation of Nuclear Morphology: Cells were seeded in 6-well culture dishes and treated with ODNs as described. The cells were then immersed in methanol for at least 10 min. Cells were stained in 1 μg/ml Hoechst 33258 in water with 1% nonfat dry milk. After staining for 8-10 min, the cells were rinsed in water and dried completely. Nuclear morphology was visually evaluated by fluorescence microscopy.
Apoptosis is the end result of an elaborate cascade of molecular events that ultimately result in programmed cell death; thus, a variety of tests are generally used to determine whether apoptosis is occurring. The methods to study apoptosis were employed: (a) assessment of nuclear morphology; (b) PARP cleavage; and (c) caspase-3 cleavage. Serum-starved cells were transfected with antisense p21 ODN or the control ODN, fixed, stained with Hoechst 33258, and examined under UV light. MCF7 and T47D cells were grown to confluence, serum starved for 24 hours, and lipofected with antisense p21 or control ODN. The cells were subsequently serum stimulated for another 24 hours, fixed, stained with Hoechst 33258, and examined under UV light at X400.

Substance	production and secretion of laminin (laminin)	serum-induced Rb hyperphosphorylation versus no-DNA control (Rb)	nuclear morphology (T47D cells)
5′-GACATCACCAGGATCGGACAT-3′	markedly reduced	no difference	–
5′-ATC-CCC-AGC-CGG-TTC-TGA-CAT-3′ (antisense ATCCCCAGCCGGTTCTGACAT; listed as DNA, chemistry not fully specified) [antisense p21 ODN]	–	–	nuclear morphological changes consistent with apoptosis
